# Measured values published in patent US5795857A, “Mimetic insect pyrokinin analogs for insect control” (The United States of America as represented by the …, priority 1996, dated 1998).
# Entries after “also recorded” stand apart in the source; their conditions may differ.
# Assays:
# [1] = test system: virgin females of Heliothis virescens; assay: Pheromonotropic assay (topical application); format: in vivo; conditions: for dose approaching 100% maximal response, topical application: 15 minutes following topical application
# Experimental: The amphiphilic carboranyl analog Cbe--Thr--Pro--Arg--Leu--NH2 was dissolved in water and solutions at concentrations of 5, 10, 25, 60, and 200 pmol/μl were prepared. The cuticular scales along the lateral side of the abdomen were removed with a 1 ml plastic pipet tip attached to house vacuum with a rubber hose. A low vacuum was applied to the apparatus and the pipet tip was gently passed over the cuticle until the scales were drawn by suction. After the scales were removed, 1 μl of peptide solution was applied to the surface of the cuticle and smoothed evenly over the prepared surface. […]
# Pupae of Heliothis virescens were obtained from a laboratory colony maintained at the Insect Attractants Behavior and Basic Biology Research Laboratory, USDA-ARS, Gainesville, Fla. The pupae were separated by sex and the females were held in 4-1 cages. Cages were inspected daily for newly eclosed adults which were transferred to new cages and provided with cotton wicks soaked with a 5% sucrose solution. The insects were held at 25°[…] C. and 65%±3% relative humidity with a 12:12 (L:D) photoperiod. Virgin females were used for bioassays 2 and 3 days after eclosion during the 7th-8th hour of the photophase when little or no pheromone is present in the gland (Teal et al., 1993, Can. Entomol., 153:355-366). The cuticular scales were removed from the lateral side of the abdomen using a plastic pipet tip attached to house vacuum using a rubber hose. A low vacuum was applied and the pipet tip was passed gently over the cuticle until the scales were drawn off by suction. Insects were returned to the incubator for 24 h after the scales were removed for most experiments. However, insects were not given a recovery period in studies in which peptides were applied in DMSO (see below).
# In initial studies we used dimethyl sulfoxide (DMSO) as a carrier to deliver Hez--PBAN or [6--Pha--Ala^0 ]Lom--MT--II for topical applications. […] We also assessed different carrier solvents for their ability to deliver these two peptides. Peptides were dissolved at a concentration of 500 pmol/μl in: DMSO, water, or 80% acetonitrile:20% water. Solutions were applied to the descaled abdomen in 1 μl of solvent as above. The insects were allowed to incubate for 1 h prior to excision and extraction of the pheromone gland. Extracts were analyzed for the amount of pheromone as above.
# The use of water as a carrier for [6--Pha--Ala^0 ]Lom--MT--II was also assessed in dose response and temporal activity studies. For dose response studies [6--Pha--Ala^0 ]Lom--MT--II was dissolved in water at concentrations of 5, 10, 25, 50, 75, 100, 250, 500, 750 and 1000 pmol/μl. Insects were incubated for 60 min after application of 1 μl of solution to the descaled abdomen. In temporal activity studies a 100 pmol/μl dose was selected. For these experiments insects were incubated for periods of 15, 30, 60, 120, or 180 min after application of 1 μl of solution to the descaled abdomen. The ability of the parent peptide, Lom--MT--II, to stimulate pheromone production when applied topically in water was assessed by applying doses of 50, 100, 250 and 500 pmol to the abdomen. Control treatments for this experiment included insects treated with only water and females treated by topical application of 100 pmol of [6--Pha--Ala^0 ]Lom--MT--II. After incubation the sex pheromone glands were excised, extracted and analyzed for the amount of pheromone.
# fleshfly larvae = assay: Acceleration of pupariation after injection into fleshfly larvae; format: in vivo, Sarcophaga bullata; conditions: injected into fleshfly larvae
# [2] = test system: isolated cockroach (Leucophaea maderae) hindgut; assay: Cockroach myotropic bioassay (isolated hindgut); format: cell-based
# Experimental: Leucophaea maderae cockroaches were taken from stock colonies maintained at 27° C. and fed dry dog food ad lib. Cockroach hindguts, free of central nervous system (CNS) tissue, were dissected, immersed in saline, and prepared for recording of myogenic activity as previously described (Holman et al., 1991, ibid). Threshold concentrations were determined for each analogue by adding a known quantity of peptide (dissolved in 0.5 ml bioassay saline) to the bioassay chamber containing the hindgut and observing the response on a Gould 2200S oscillograph recorder. The quantity of the peptide analogues was calculated from the values obtained for Phe and/or Leu in the amino acid analysis. The threshold concentration was defined as the minimum concentration of peptide in the chamber required to evoke an observable change in the frequency (50%) or amplitude of contractions (5%) within 1 min and sustained for 3 min. Threshold concentrations were obtained from five cockroach hindguts on 5 consecutive days for each peptide. Quantitative data for dose-response plots were obtained as previously described (Holman et al., 1991, ibid).
# [3] = isolated hindgut, FIG. 2, listed as carboranyl pseudotetrapeptide
substance,measurement,setting,value
Cbe--Thr--Pro--Arg--Leu--NH2,"ED50 (EC50), pheromone production after topical application","[1]; 1 μl aqueous solution on lateral abdominal surface, FIG. 4",25 pmoles/female
same,"ED50, pheromone production via topical application","[1]; H. virescens, 1 μl aqueous solution",25 pmol
same,time after topical application at which pheromone production is elicited,[1]; aqueous solution,about 15 minutes
same,"dose approaching 100% maximal response, topical application","[1]; aqueous solution, listed as carboranyl analog",60 pmoles/female
same,"dose approaching 100% maximal response, topical application","[1]; aqueous solution, listed as carboranyl peptide",about 60 pmoles/female
same,Maximal Response via topical application (dose),[1]; relative to 5 pmoles PBAN via injection,60 pmol
same,"concentration giving maximal pheromone stimulation, topical application",[1]; topically applied,60 picomoles/insect
same,concentration accelerating pupariation,fleshfly larvae,≤ 0.25 picomoles/insect
same,potency relative to the 8-mer LPK,[2]; hindgut threshold concentration,10 X
same,reversibility of myostimulatory response by saline rinse,"[2]; isolated hindgut, FIG. 2, listed as carboranyl analog",could not be reversed even following repeated saline rinses; also recorded: cannot be reversed even following repeated saline rinses
same,period over which myostimulatory activity subsides after rinse,[2]; [3],about 20 minutes
same,reversibility of myostimulatory response by saline rinse,[2]; [3],cannot be reversed by one or more saline rinses
same,"Threshold Concentration, myostimulation of the isolated cockroach hindgut",[2]; minimum concentration evoking observable change in frequency (50%) or amplitude (5%) of contractions,70 pM
